The results in this text go back to PubChem BioAssay (NCI).

Several values for one entry are separate records, joined by “and”; a condition that tells them apart may be missing. Identical values can stand only once.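 1) Cells in 96-well plates. 2) Compound, 48 h, 5 concentrations. 3) Linear interpolation between surrounding doses. 4) Unreached endpoint = highest concentration. GI50 = concentration required for 50% inhibition of growth. At the TGI there is no net growth.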

Some test systems named below: SNB-75 CNS; OVCAR-8 ovarian; SK-MEL-5 melanoma; SR leukemia; LXFL 529 NSCLC; SNB-78 CNS; SK-MEL-28 melanoma; M14 melanoma; A498 renal; NCI/ADR-RES ovarian.
Assay in all cases: inhibition of tumour cell growth, NCI panel, 48 h

As for `O=S1(=O)CC#CC[C@@H](CO)[C@@H](CO)CC#CC1`, the TGI in the assay on SNB-75 CNS, with OVCAR-8 ovarian, with SK-MEL-5 melanoma, in the assay with SR leukemia, with LXFL 529 NSCLC and in the assay with SNB-78 CNS was greater than 100 µM in each case. The TGI with SK-MEL-28 melanoma and in the assay on M14 melanoma was greater than 100 µM in each case.

Consider `CCCCCCCCCCCCCC(=O)OCC1OC(=O)C(O)C1O` (stereo not given), for which the TGI in the assay with A498 renal, in the assay with SNB-75 CNS, in the assay with OVCAR-8 ovarian, in the assay with SK-MEL-5 melanoma, in the assay with SR leukemia and with LXFL 529 NSCLC was greater than 100 µM each time. Besides, the TGI in the assay with SK-MEL-28 melanoma and in the assay with M14 melanoma was greater than 100 µM in each case.

As to `O=S1c2ccccc2N=C(c2cccs2)CC1c1ccccc1O` (stereo not given), the TGI is 99.8 µM with A498 renal; greater than 100 µM with SNB-75 CNS; greater than 100 µM with OVCAR-8 ovarian; greater than 100 µM with SK-MEL-5 melanoma; greater than 100 µM with LXFL 529 NSCLC; greater than 100 µM in the assay with SK-MEL-28 melanoma. In the assay on M14 melanoma, this compound came in with a TGI greater than 100 µM.

For the compound `O=c1[nH]c(C2CCCCC2)nc2ccc(Cl)cc12`, the TGI in the assay on SNB-75 CNS, with OVCAR-8 ovarian, in the assay on SK-MEL-5 melanoma, in the assay with SR leukemia, in the assay with LXFL 529 NSCLC and with SNB-78 CNS was greater than 100 µM throughout. This compound also had a TGI in the assay with SK-MEL-28 melanoma greater than 100 µM.

On to `Cc1ccccc1C1SCc2nc3ccccc3n21` (stereo not given), for which the TGI in the assay on SNB-75 CNS, in the assay on OVCAR-8 ovarian, in the assay on SK-MEL-5 melanoma, with SNB-78 CNS and with SK-MEL-28 melanoma was greater than 100 µM throughout.

For the compound `CC1=NN(c2ccccc2)C(=O)C1N=Nc1ccc(Br)cc1C` (stereo not given), the TGI in the assay on A498 renal was greater than 100 µM; in the assay on SNB-75 CNS, 48.3 µM; with OVCAR-8 ovarian, greater than 100 µM; in the assay on SK-MEL-5 melanoma it was greater than 100 µM; in the assay with LXFL 529 NSCLC it was greater than 100 µM; in the assay on SNB-78 CNS it was greater than 100 µM. Besides, the TGI in the assay with SK-MEL-28 melanoma and with M14 melanoma was greater than 100 µM in each case.

Take `O=C(COc1ccc(Cl)cc1Cl)NNc1ccc([N+](=O)[O-])cc1`: the GI50 in the assay on A498 renal was 21.6 µM; with SNB-75 CNS, 15.3 µM; in the assay on OVCAR-8 ovarian, 98.9 µM; in the assay with SK-MEL-5 melanoma it was greater than 100 µM; in the assay on SR leukemia, 49.9 µM; with SK-MEL-28 melanoma it was 39.1 µM. Moreover, the results for the GI50 in the assay on M14 melanoma and in the assay on NCI/ADR-RES ovarian were greater than 100 µM and 84 µM, respectively. The TGI is 53.8 µM with A498 renal; 33.7 µM in the assay on SNB-75 CNS; greater than 100 µM in the assay with OVCAR-8 ovarian; greater than 100 µM with SK-MEL-5 melanoma; greater than 100 µM in the assay on SR leukemia; greater than 100 µM in the assay with SK-MEL-28 melanoma. Besides, the TGI in the assay with M14 melanoma and in the assay on NCI/ADR-RES ovarian was greater than 100 µM in each case.

In the case of `CCN1C(=O)N(CC)C2C1NN=c1s/c(=C\c3ccc(Br)cc3)c(=O)n12` (stereo not given), the GI50 in the assay with A498 renal was 0.0833 µM; with SNB-75 CNS, 0.0808 µM; in the assay with OVCAR-8 ovarian, 0.416 µM; with SK-MEL-5 melanoma it was 0.118 µM; in the assay on SR leukemia, 0.04 µM; in the assay on SK-MEL-28 melanoma, greater than 53.8 µM. The results for the GI50 in the assay with M14 melanoma and with NCI/ADR-RES ovarian were 0.138 µM and 0.0626 µM, respectively. The TGI with A498 renal was greater than 100 µM; with SNB-75 CNS, greater than 100 µM; in the assay with OVCAR-8 ovarian it was greater than 100 µM; in the assay on SK-MEL-5 melanoma it was 1.84 µM; with SR leukemia, greater than 100 µM; in the assay on SK-MEL-28 melanoma, greater than 100 µM. For the same compound, the TGI with M14 melanoma and with NCI/ADR-RES ovarian was greater than 100 µM throughout.

As to `CCCCCCCC(=O)[O-].N.N.N.N.N.[Co+3].[O-][Cl+3]([O-])([O-])[O-]`, the GI50 in the assay with A498 renal, in the assay with SNB-75 CNS, in the assay with OVCAR-8 ovarian, with SK-MEL-5 melanoma, in the assay with LXFL 529 NSCLC and in the assay on SNB-78 CNS was greater than 100 µM throughout. For the same compound, the GI50 in the assay with SK-MEL-28 melanoma and with M14 melanoma was greater than 100 µM each time. In addition, the TGI in the assay with A498 renal, with SNB-75 CNS, in the assay on OVCAR-8 ovarian, with SK-MEL-5 melanoma, with LXFL 529 NSCLC and with SNB-78 CNS was greater than 100 µM throughout. For the same compound, the TGI in the assay with SK-MEL-28 melanoma and in the assay on M14 melanoma was greater than 100 µM each time.

`OC(CBr)C(O)C(O)C(O)CBr` (stereo not given): the TGI with A498 renal was greater than 100 µM; with SNB-75 CNS, 68.4 µM and > 100 µM; in the assay with OVCAR-8 ovarian it was greater than 100 µM; in the assay on SK-MEL-5 melanoma, greater than 100 µM; with SR leukemia, greater than 100 µM; with SNB-78 CNS, greater than 100 µM. Also, the TGI in the assay on SK-MEL-28 melanoma, in the assay on M14 melanoma and in the assay with NCI/ADR-RES ovarian was greater than 100 µM throughout. The GI50 is 13 µM and 51 µM in the assay with SNB-75 CNS; greater than 100 µM in the assay with SK-MEL-5 melanoma; greater than 100 µM in the assay on NCI/ADR-RES ovarian.

Take `COc1cc(/C=C/[N+](=O)[O-])cc(OC)c1`: the GI50 with A498 renal was 2.96 µM; with SNB-75 CNS, 3.82 µM; in the assay on OVCAR-8 ovarian, 3.72 µM; in the assay on SK-MEL-5 melanoma, 1.97 µM; in the assay with SR leukemia, 1.14 µM; in the assay with SK-MEL-28 melanoma it was 2.75 µM. In addition, the GI50 in the assay with M14 melanoma is 2 µM; in the assay on NCI/ADR-RES ovarian it was 3.02 µM. Further, the TGI in the assay with A498 renal was determined as 9.12 µM; in the assay with SNB-75 CNS it was 16.7 µM; in the assay with OVCAR-8 ovarian it was 13.9 µM; with SK-MEL-5 melanoma, 4.03 µM; in the assay on SR leukemia it was 5.45 µM; with SK-MEL-28 melanoma, 7.29 µM. For the same compound, the TGI is 4.48 µM with M14 melanoma and 13.6 µM with NCI/ADR-RES ovarian.

With `COc1cc(-c2cc(-c3ccc(Nc4nc(Nc5ccc(Cl)cc5)nc(Nc5ccc(Cl)cc5)n4)cc3)no2)cc(OC)c1OC`, the GI50 in the assay with A498 renal is 2.71 µM; in the assay on SNB-75 CNS it was 12.7 µM; in the assay with OVCAR-8 ovarian, 36 µM; with SK-MEL-5 melanoma, 4.47 µM; in the assay on SR leukemia, 1.92 µM; with SK-MEL-28 melanoma it was 14.4 µM. Also, the GI50 with M14 melanoma was 7.11 µM; in the assay with NCI/ADR-RES ovarian it was 11.3 µM. Moreover, the TGI with A498 renal was greater than 100 µM; in the assay with SNB-75 CNS, greater than 100 µM; in the assay on OVCAR-8 ovarian it was greater than 100 µM; in the assay on SK-MEL-5 melanoma, 58.1 µM; with SR leukemia, 21.6 µM; with SK-MEL-28 melanoma it was greater than 100 µM. Further, the TGI with M14 melanoma and in the assay with NCI/ADR-RES ovarian was greater than 100 µM in each case.
